From the NIST ThermoML archive (doi:10.1021/je700406p)
Numbers after ± are expanded uncertainties.

Assay: wn = mass fraction of the nth substance listed
Conditions: Liquid, Vibrating tube method

CC(C)(N)CO [2-amino-2-methylpropan-1-ol] + O
Conditions	mass density [kg/m3]
323.09 K, 19985 kPa, w1 = 0.4976	978 ± 1.3
323.09 K, 20939 kPa, w1 = 0.4976	978.4 ± 1.3
323.1 K, 513 kPa, w1 = 0.1997	984.2 ± 0.5
323.1 K, 1002 kPa, w1 = 0.4002	978 ± 0.9
323.1 K, 1007 kPa, w1 = 0.1997	984.4 ± 0.5
323.1 K, 2005 kPa, w1 = 0.1997	984.8 ± 0.5
323.1 K, 2023 kPa, w1 = 0.4002	978.4 ± 0.9
323.1 K, 3001 kPa, w1 = 0.4002	978.9 ± 0.9
323.1 K, 3005 kPa, w1 = 0.1997	985.1 ± 0.5
323.1 K, 4001 kPa, w1 = 0.1997	985.5 ± 0.5
323.1 K, 4011 kPa, w1 = 0.4002	979.2 ± 0.9
323.1 K, 5000 kPa, w1 = 0.1997	986 ± 0.5
323.1 K, 5000 kPa, w1 = 0.4002	979.7 ± 0.9
323.1 K, 6002 kPa, w1 = 0.4002	980 ± 0.9
323.1 K, 6003 kPa, w1 = 0.1997	986.3 ± 0.5
323.1 K, 6999 kPa, w1 = 0.4002	980.4 ± 0.9
323.1 K, 7003 kPa, w1 = 0.1997	986.8 ± 0.5
323.1 K, 7990 kPa, w1 = 0.4002	980.8 ± 0.9
323.1 K, 8001 kPa, w1 = 0.1997	987.1 ± 0.5
323.1 K, 9002 kPa, w1 = 0.4002	981.2 ± 0.9
323.1 K, 9013 kPa, w1 = 0.1997	987.5 ± 0.5
323.1 K, 9990 kPa, w1 = 0.4002	981.6 ± 0.9
323.1 K, 10002 kPa, w1 = 0.1997	987.9 ± 0.5
323.1 K, 10992 kPa, w1 = 0.4002	982 ± 0.9
323.1 K, 11001 kPa, w1 = 0.1997	988.3 ± 0.5
323.1 K, 11996 kPa, w1 = 0.4002	982.5 ± 0.9
323.1 K, 12004 kPa, w1 = 0.1997	988.7 ± 0.5
323.1 K, 12990 kPa, w1 = 0.4002	982.8 ± 0.9
323.1 K, 13009 kPa, w1 = 0.1997	989 ± 0.5
323.1 K, 13994 kPa, w1 = 0.4002	983.2 ± 0.9
323.1 K, 13999 kPa, w1 = 0.1997	989.4 ± 0.5
323.1 K, 14992 kPa, w1 = 0.4002	983.6 ± 0.9
323.1 K, 15001 kPa, w1 = 0.1997	989.8 ± 0.5
323.1 K, 15995 kPa, w1 = 0.4002	984 ± 0.9
323.1 K, 16002 kPa, w1 = 0.1997	990.2 ± 0.5
323.1 K, 16986 kPa, w1 = 0.4002	984.4 ± 0.9
323.1 K, 17001 kPa, w1 = 0.1997	990.6 ± 0.5
323.1 K, 17993 kPa, w1 = 0.4002	984.8 ± 0.9
323.1 K, 18004 kPa, w1 = 0.1997	991 ± 0.5
323.1 K, 18995 kPa, w1 = 0.4002	985.1 ± 0.9
323.1 K, 19000 kPa, w1 = 0.1997	991.4 ± 0.5
323.1 K, 19992 kPa, w1 = 0.4002	985.5 ± 0.9
323.1 K, 20030 kPa, w1 = 0.1997	991.7 ± 0.5
323.1 K, 21005 kPa, w1 = 0.1997	992.1 ± 0.5
323.1 K, 21297 kPa, w1 = 0.4002	986 ± 0.9
323.1 K, 22004 kPa, w1 = 0.1997	992.5 ± 0.5
323.1 K, 22998 kPa, w1 = 0.1997	992.9 ± 0.5
323.1 K, 24004 kPa, w1 = 0.1997	993.3 ± 0.5
332.01 K, 1005 kPa, w1 = 0.2821	976.1 ± 0.6
332.01 K, 2004 kPa, w1 = 0.2821	976.5 ± 0.6
332.01 K, 2997 kPa, w1 = 0.2821	977 ± 0.6
332.01 K, 4002 kPa, w1 = 0.2821	977.4 ± 0.6
332.01 K, 5002 kPa, w1 = 0.2821	977.8 ± 0.6
332.01 K, 5997 kPa, w1 = 0.2821	978.2 ± 0.6
332.01 K, 6999 kPa, w1 = 0.2821	978.6 ± 0.6
332.01 K, 7996 kPa, w1 = 0.2821	979 ± 0.6
332.01 K, 8992 kPa, w1 = 0.2821	979.4 ± 0.6
332.01 K, 9994 kPa, w1 = 0.2821	979.8 ± 0.6
332.01 K, 11040 kPa, w1 = 0.2821	980.2 ± 0.6
332.01 K, 11992 kPa, w1 = 0.2821	980.6 ± 0.6
332.01 K, 12990 kPa, w1 = 0.2821	981 ± 0.6
332.01 K, 13989 kPa, w1 = 0.2821	981.4 ± 0.6
332.01 K, 14989 kPa, w1 = 0.2821	981.8 ± 0.6
332.01 K, 15990 kPa, w1 = 0.2821	982.2 ± 0.6
332.01 K, 17000 kPa, w1 = 0.2821	982.5 ± 0.6
332.01 K, 17987 kPa, w1 = 0.2821	982.9 ± 0.6
332.01 K, 18991 kPa, w1 = 0.2821	983.3 ± 0.6
332.01 K, 19984 kPa, w1 = 0.2821	983.7 ± 0.6
332.01 K, 20986 kPa, w1 = 0.2821	984.1 ± 0.6
332.99 K, 503 kPa, w1 = 0.1997	978.2 ± 0.5
332.99 K, 1000 kPa, w1 = 0.1997	978.5 ± 0.5
332.99 K, 2000 kPa, w1 = 0.1997	978.7 ± 0.5
332.99 K, 3000 kPa, w1 = 0.1997	979.2 ± 0.5
332.99 K, 4000 kPa, w1 = 0.1997	979.6 ± 0.5
332.99 K, 5001 kPa, w1 = 0.1997	979.9 ± 0.5
332.99 K, 6000 kPa, w1 = 0.1997	980.4 ± 0.5
332.99 K, 7001 kPa, w1 = 0.1997	980.8 ± 0.5
332.99 K, 8001 kPa, w1 = 0.1997	981.2 ± 0.5
332.99 K, 9009 kPa, w1 = 0.1997	981.5 ± 0.5
332.99 K, 10003 kPa, w1 = 0.1997	982 ± 0.5
332.99 K, 11001 kPa, w1 = 0.1997	982.3 ± 0.5
332.99 K, 12000 kPa, w1 = 0.1997	982.8 ± 0.5
332.99 K, 13000 kPa, w1 = 0.1997	983.2 ± 0.5
332.99 K, 14000 kPa, w1 = 0.1997	983.6 ± 0.5
332.99 K, 14999 kPa, w1 = 0.1997	984 ± 0.5
332.99 K, 16001 kPa, w1 = 0.1997	984.3 ± 0.5
332.99 K, 17001 kPa, w1 = 0.1997	984.8 ± 0.5
332.99 K, 18006 kPa, w1 = 0.1997	985.2 ± 0.5
332.99 K, 19001 kPa, w1 = 0.1997	985.5 ± 0.5
332.99 K, 20029 kPa, w1 = 0.1997	985.9 ± 0.5
332.99 K, 21005 kPa, w1 = 0.1997	986.3 ± 0.5
332.99 K, 22004 kPa, w1 = 0.1997	986.7 ± 0.5
332.99 K, 23000 kPa, w1 = 0.1997	987 ± 0.5
332.99 K, 24008 kPa, w1 = 0.1997	987.4 ± 0.5
333.04 K, 1029 kPa, w1 = 0.4976	961.9 ± 1.2
333.04 K, 1994 kPa, w1 = 0.4976	962.4 ± 1.2
333.04 K, 3005 kPa, w1 = 0.4976	962.8 ± 1.2
333.04 K, 4012 kPa, w1 = 0.4976	963.3 ± 1.2
333.04 K, 4995 kPa, w1 = 0.4976	963.7 ± 1.3
333.04 K, 5995 kPa, w1 = 0.4976	964.1 ± 1.3
333.04 K, 7056 kPa, w1 = 0.4976	964.6 ± 1.3
333.04 K, 7994 kPa, w1 = 0.4976	965 ± 1.3
333.04 K, 8994 kPa, w1 = 0.4976	965.5 ± 1.3
333.04 K, 9997 kPa, w1 = 0.4976	965.9 ± 1.3
333.04 K, 10996 kPa, w1 = 0.4976	966.3 ± 1.3
333.04 K, 11991 kPa, w1 = 0.4976	966.7 ± 1.3
333.04 K, 12988 kPa, w1 = 0.4976	967.2 ± 1.3
333.04 K, 13992 kPa, w1 = 0.4976	967.6 ± 1.3
333.04 K, 14999 kPa, w1 = 0.4976	968 ± 1.3
333.04 K, 15982 kPa, w1 = 0.4976	968.4 ± 1.3
333.04 K, 16996 kPa, w1 = 0.4976	968.9 ± 1.3
333.04 K, 17988 kPa, w1 = 0.4976	969.3 ± 1.3
333.04 K, 18986 kPa, w1 = 0.4976	969.7 ± 1.3
333.04 K, 19987 kPa, w1 = 0.4976	970.1 ± 1.3
333.04 K, 21093 kPa, w1 = 0.4976	970.6 ± 1.3
333.05 K, 1028 kPa, w1 = 0.4002	970.4 ± 0.9
333.05 K, 1998 kPa, w1 = 0.4002	970.8 ± 0.9
333.05 K, 3001 kPa, w1 = 0.4002	971.2 ± 0.9
333.05 K, 4010 kPa, w1 = 0.4002	971.6 ± 0.9
333.05 K, 5003 kPa, w1 = 0.4002	972.1 ± 0.9
333.05 K, 5997 kPa, w1 = 0.4002	972.5 ± 0.9
333.05 K, 7000 kPa, w1 = 0.4002	972.9 ± 0.9
333.05 K, 8010 kPa, w1 = 0.4002	973.3 ± 0.9
333.05 K, 8996 kPa, w1 = 0.4002	973.7 ± 0.9
333.05 K, 9998 kPa, w1 = 0.4002	974.2 ± 0.9
333.05 K, 10998 kPa, w1 = 0.4002	974.6 ± 0.9
333.05 K, 12011 kPa, w1 = 0.4002	975 ± 0.9
333.05 K, 13000 kPa, w1 = 0.4002	975.4 ± 0.9
333.05 K, 13987 kPa, w1 = 0.4002	975.8 ± 0.9
